# According to patent publication US5130302A, “Boronated nucleoside, nucleotide and oligonucleotide compounds, compositions and methods for using same” (Boron Bilogicals, Inc., priority 1989, dated 1992):
# Read-outs that look alike come from different tables or passages of the source.
# How the values were obtained:
# [1] = tested on: L1210 lymphoid leukemia cells; experiment: Cytotoxicity, L1210 lymphoid leukemia cells; format: cell-based; conditions: Mus musculus, read-out: ED50 (cytotoxicity), L1210
# Procedure: (§1) More specifically, the cytotoxic activity of the boron adducts of the present invention was tested on the following neoplastic cell lines:
# 1. L1210 lymphoid leukemia cells, R. Geran et al., Cancer Chemotherapy Reports 3, 7 (1972).(grown in RPMI+15% FBS+antibiotics).
# (§2) The cytotoxic screens were conducted according to NIH protocols, see E. Huang et al., J. Pharm. Sci. 61, 108 (1972), with 10^4 cells, growth medium, antibiotics and drugs from 0.5 to 100 μg/ml final concentration. For the L1210, Hela-S, amd Tmolt, (i.e. the suspended cells), the incubations were conducted in sterile test tubes in a final volume of 1 ml for 72 hr at 37° C. in a CO2 incubator. The cells on the third day were still in log growth phase. The number of cells/ml are determined using trypan blue exclusion and a hemocytometer. See, e.g., R. Geran, supra. For solid tumors there is plated out in wells 1×10^4 cells with 1 ml of medium+antibiotics and the other components of growth. When the controls have converged (≈95%) then the density of the cells is estimated and the ED50 values calculated.
# P388 = experiment: Cytotoxicity, P388; format: cell-based
# Procedure: as §2
# [2] = tested on: Tmolt acute lymphoblastic T cell leukemia; experiment: Cytotoxicity, Tmolt acute lymphoblastic T cell leukemia; format: cell-based; conditions: T-cell, read-out: ED50 (cytotoxicity), Tmolt
# Procedure: as §1
# 2. Tmolt^S acute lymphoblastic T cell leukemia, S. Schreiber and N. Ikemoto, Tett. Lett 29, 3211 (1988) (grown in RPMI - 1640+10% FBS).
# as §2
# [3] = tested on: SW480 human colorectal carcinoma; experiment: Cytotoxicity, colon adenocarcinoma SW480 human colorectal carcinoma; format: cell-based
# Procedure: as §1
# 3. Colon adenocarcinoma SW480 human colorectal carcinoma. A. Leibovitz et al., Cancer Res. 36, 4562 (1976) (grown in L15+10% FBS).
# as §2
# [4] = tested on: KB epidermoid oral nesopharnyx; experiment: Cytotoxicity, KB epidermoid oral nasopharynx; format: cell-based; conditions: Homo sapiens, read-out: ED50 (cytotoxicity), KB
# Procedure: 6. KB epidermoid oral nesopharnyx. R. Geran, supra: H. Eagle, Proc. Soc. Expt.
# Biol. 89, 362 (1955)(grown in EMEM +5% calf serum).
# as §2
# [5] = tested on: Lung bronchogenic MB-9812; experiment: Cytotoxicity, lung bronchogenic MB-9812; format: cell-based; conditions: read-out: ED50 (cytotoxicity), Lung Bronchogenic
# Procedure: 4. Lung bronchogenic MB-9812, S. Aronson et al., Expt. Cell Res. 61, 1 (1970) (grown in EMEM+10% FBS+NEAA).
# as §2
# Hela-S = experiment: Cytotoxicity, Hela-S cervical carcinoma suspended; format: cell-based; conditions: Homo sapiens, read-out: ED50 (cytotoxicity), Hela-S
# Procedure: 7. Hela-S, ATCC-CCL 2.2, cervical carcinoma suspended, S. Schreiber and N. Ikemoto, supra; T. Puck et al., J. Exp. Med. 103. 273 (1956) (grown in Joklik+5% FBS, Ham's F12 +5% FBS).
# as §2
# Human Osteosarcoma TE418 = experiment: Cytotoxicity, human osteosarcoma TE418; format: cell-based; conditions: read-out: ED50 (cytotoxicity), Osteo sarcoma
# Procedure: 5. Human Osteosarcoma TE418. H. Smith et al., Int. J. Cancer 17, 219 (1976) (grown in DMEM+10% FBS).
# as §2
# [6] = tested on: Human glioma cell EH 118 MG; experiment: Cytotoxicity, human glioma cell EH 118 MG; format: cell-based; conditions: read-out: ED50 (cytotoxicity), Glioma
# Procedure: 9. Human glioma cell EH 118 MG transformed stain of Rous sarcoma virus, J. Lutton et al., J. Biol. Chem. 254, 11181 (1979) (grown in DMEM-H+10% FCS).
# as §2
# inflammatory response = experiment: Anti-inflammatory activity, carrageenan-injected hind foot; format: in vivo, CF1 male mice; conditions: 8 mg/kg/day; intraperitoneal, 3 hours and 30 minutes prior to carrageenan; mice
# Procedure: CF1 male mice (~25 g) were administered test drugs at 5-40 mg/kg in 0.05% Tween 80--H2 O intraperitoneally 3 hours prior to and 30 minutes prior to the injection of 0.2 ml of 1% carrageenan in 0.9% saline into the plantar surface of the right hind foot. Saline was injected into the left hind foot, which serves as a base line. After 3 hours, both feet were excised at the tibiotarsal (ankle) joint according to standard procedures. See C. Winter et al., Proc. Soc. Expt. Biol Med. 544, 111 (1962); A. Roszkawski et al., J. Pharm. Exp. Ther. 179, 114 (1971). Control mice afforded a 78±3 mg increase in paw weight.
# serum cholesterol levels = experiment: Antihyperlipidemic activity, serum cholesterol; format: in vivo, male CF1 mice; conditions: 8 mg/kg/day; intraperitoneal for 16d; mice
# Procedure: (§3) Compounds to be tested were suspended in 1% aqueous carboxymethylcellulose,homogenized and administered to male CF1 mice (25 g) intraperitoneally for 16d. On days 9 and 16, blood was obtained by tail vein bleeding, and the serum was separated by centrifugation for three minutes. The serum cholesterol levels were determined by a modification of the Liebermann--Burchard reaction in accordance with known techniques. See A. Ness, et al., Clin. Chim. Acta 10, 229 (1964). Serum triglyceride levels were determined with a commercial kit, the Fisher Hycel Triglyceride Test Kit, for a different group of animals bled on day 16.
# [7] = tested on: Serum triglyceride levels; experiment: Antihyperlipidemic activity, serum triglyceride; format: in vivo, male CF1 mice; conditions: 8 mg/kg/day; intraperitoneal, bled on day 16; mice
# Procedure: as §3
# [8] = Stability in aqueous medium by HPLC; format: physicochemical
# Procedure: By HPLC, compounds 3a, 3b, and 3d in aqueous medium (0.01 M TEAAc) are >94% stable over a period of 168 h. […], however, is >50% decomposed during this period.
# [9] = Mus musculus, P388, read-out: ED50 (cytotoxicity), P388
# [10] = Homo sapiens, SW480, read-out: ED50 (cytotoxicity), Adeno Carcinoma SW480
# [11] = Mus musculus, P388; read-out: ED50 (cytotoxicity), P388
Structure (SMILES),"IC50 ([1]; L1210, 72 h)",IC50 (P388; [9]),IC50 ([2]; 72 h),"IC50 [3, 10]",IC50 [4],IC50 [5],"IC50 (Hela-S; HeLa, 72 h)",IC50 [6],"IC50 ([1]; L1210, 72 hr at 37° C.)",IC50 (P388; [11]),further results
"CC(C)[Si](OC[C@H]1O[C@@H](n2c[n+]([BH2-]C#N)c3c(=O)[nH]c(N)nc32)C[C@@H]1O[Si](C(C)C)(C(C)C)C(C)C)(C(C)C)C(C)C [Compound 2a, 3',5'-O-Bis(triisopropylsilyl)-2'-deoxyguanosine N7-cyanoborane]",6.05 µg/mL,5.13 µg/mL,2.26 µg/mL,2.67 µg/mL,2.67 µg/mL,4.05 µg/mL,2.83 µg/mL,7.61 µg/mL,,,IC50 (Human Osteosarcoma TE418): 7.2 µg/mL
"CC(C)[Si](OC[C@H]1O[C@@H](n2c[n+]([BH2-]C#N)c3c(=O)[nH]cnc32)C[C@@H]1O[Si](C(C)C)(C(C)C)C(C)C)(C(C)C)C(C)C [Compound 2b, 3', 5-O-Bis(triisopropylislyl)-2'-deoxyinosine-N7-cyanoborane]",4 µg/mL,7.31 µg/mL,6.49 µg/mL,2.57 µg/mL,5.29 µg/mL,6.2 µg/mL,3.26 µg/mL,6.21 µg/mL,,,
"CC(C)[Si](OC[C@H]1O[C@@H](n2cnc3c(N)[n+]([BH2-]C#N)cnc32)C[C@@H]1O[Si](C(C)C)(C(C)C)C(C)C)(C(C)C)C(C)C [Compound 2c, 3', 5'-O-Bis(triisopropylsilyl)-2'-deoxyadenosine-N1-cyanoborane]",6.86 µg/mL,7.46 µg/mL,1.88 µg/mL,2.87 µg/mL,5.79 µg/mL,5.58 µg/mL,3.42 µg/mL,4.99 µg/mL,,,
"CC(C)[Si](OC[C@H]1O[C@@H](n2ccc(N)[n+]([BH2-]C#N)c2=O)C[C@@H]1O[Si](C(C)C)(C(C)C)C(C)C)(C(C)C)C(C)C [Compound 2d, 3', 5'-O-Bis(triisopropylsilyl)-2'-deoxycytidine-N3-cyanoborane]",,,,,5.72 µg/mL,,,,4.78 µg/mL,7.26 µg/mL,"IC50 ([2]; Tmolt, 72 hr at 37° C.): 3.36 µg/mL; IC50 ([3]; Homo sapiens, SW480; read-out: ED50 (cytotoxicity), Adeno Carcinoma SW480): 2.73 µg/mL; IC50 ([5]; Lung bronchogenic MB-9812): 6.6 µg/mL; IC50 (Hela-S; Hela-S, 72 hr at 37° C.): 2.94 µg/mL; IC50 ([6]; Glioma EH 118 MG): 6.77 µg/mL"
"N#C[BH2-][n+]1cn([C@H]2C[C@H](O)[C@@H](CO)O2)c2nc(N)[nH]c(=O)c21 [Compound 3a, 2'-Deoxyguanosine-N7-cyanoborane]",,,,,,,,,5.08 µg/mL,5.87 µg/mL,"Antiinflammatory Activity, % inhibition (inflammatory response): 22%; Hypolipidemic: Cholesterol Inhibition, % inhibition (serum cholesterol levels): 44%; Hypolipidemic: Triglyceride Inhibition, % inhibition [7]: 37%; remaining at 168 h ([8]; 0.01 M TEAAc, period of 168 h, HPLC, read-out: stable in aqueous medium): > 94%; stability in aqueous medium ([8]; in words, aqueous medium): good stability"
